Experimental data from PubChem BioAssay (NCI).
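GI50 marks 50% less growth. TGI: total growth inhibition.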

Assays:
Assay in all cases: DTP human tumour cell line panel, 384-well format
[1] = test system: A549 NSCLC
[2] = test system: MDA-MB-435 melanoma
[3] = test system: NCI-H522 lung
[4] = test system: OVCAR-3 ovarian
[5] = test system: SR leukemia
[6] = test system: UACC-62 melanoma
[7] = test system: NCI-H23 lung
[8] = test system: A498 renal
[9] = test system: T-47D breast
[10] = test system: LOX IMVI melanoma
[11] = test system: SF-295 CNS
[12] = test system: MALME-3M melanoma
[13] = test system: 786-0 renal
[14] = test system: HL-60(TB) leukemia
[15] = test system: SW-620 colon
[16] = test system: CCRF-CEM leukemia
[17] = test system: RPMI-8226 leukemia
[18] = test system: PC-3 prostate
[19] = test system: COLO 205 colon
[20] = test system: OVCAR-5 ovarian
[21] = test system: SK-OV-3 ovarian
[22] = test system: TK-10 renal
[23] = test system: HCT-15 colon
[24] = test system: HOP-92 NSCLC
[25] = test system: SN12C renal
[26] = test system: DU-145 prostate
[27] = test system: OVCAR-8 ovarian
[28] = test system: M14 melanoma
[29] = test system: HCC-2998 colon

**Q.** Which results are given for `COc1ccc([C@H](CC(=O)O)N2CCN(CCCc3ccc4c(n3)NCCC4)C2=O)cn1`?
**A.** TGI [1]: > 100 µM; GI50 [2]: 96.3 µM; TGI [2]: > 100 µM; GI50 [3]: 0.151 µM; TGI [3]: 14.6 µM; GI50 [4]: 13.3 µM; TGI [4]: > 100 µM; GI50 [5]: 31.5 µM; TGI [5]: 86.5 µM; GI50 [6]: 38 µM; TGI [6]: > 100 µM; GI50 [7]: > 100 µM; TGI [7]: > 100 µM; GI50 [8]: 0.0192 µM; TGI [8]: 1.04 µM; GI50 [9]: 14.2 µM; TGI [9]: 51 µM; GI50 [10]: 21.1 µM; TGI [10]: 67.1 µM; GI50 [11]: 41.1 µM; TGI [11]: > 100 µM; GI50 [12]: 25.4 µM; TGI [12]: > 100 µM; GI50 [13]: 0.495 µM; TGI [13]: 24.9 µM; GI50 [14]: > 100 µM; TGI [14]: > 100 µM; GI50 [15]: 88.2 µM; TGI [15]: > 100 µM; GI50 [16]: 34.7 µM; TGI [16]: > 100 µM; GI50 [17]: 7.91 µM; TGI [17]: 21.1 µM; GI50 [18]: 29.1 µM; TGI [18]: > 100 µM; GI50 [19]: 36.8 µM; TGI [19]: > 100 µM; GI50 [20]: 0.0927 µM; TGI [20]: 62.9 µM; GI50 [21]: 3.35 µM; TGI [21]: 65.4 µM; GI50 [22]: 0.0253 µM; TGI [22]: 0.13 µM; GI50 [23]: 44.7 µM; TGI [23]: > 100 µM; GI50 [24]: 0.166 µM; TGI [24]: 0.933 µM; GI50 [25]: 36.7 µM; TGI [25]: > 100 µM; GI50 [26]: 1.13 µM; TGI [26]: > 100 µM; GI50 [27]: 11.7 µM; TGI [27]: > 100 µM; GI50 [28]: 40.6 µM; TGI [28]: > 100 µM; GI50 [29]: 42.9 µM; TGI [29]: > 100 µM
